Columns and labels:
PC-3 tumor cells [1] = experiment: Cell uptake assay on PC-3 tumor cells; format: cell-based, human; settings: PC-3 cells
Description: In the cell uptake experiment, PC-3 cells were seeded into 12-well plates at a density of 5×10^5 cells per well for overnight incubation. Cells were rinsed 3 times with phosphate-buffered saline (PBS), followed by the addition of ^18F-FB-RGD, ^18F-FB-BBN, or ^18F-BBN-RGD to the cultured wells in triplicate (about 2 μCi/well). […] The cell lysate was collected in measurement tubes for counting. The cell uptake was normalized in terms of added radioactivity.
(§1) The cell uptake studies were performed as we have previously described with some modifications (Chen et al., Mol Imaging Biol. (2004) […]; Cai et al., (2006) J. Nuc. Med. 47: 1172-1180, incorporated herein by reference in their entireties). Briefly, PC-3 cells were seeded into 12-well plates at a density of 5×10^5 cells per well and incubated (about 18 kBq/well) with ^68Ga-labeled tracers at 37° C. for 15, 30, 60, and 120 min. Tumor cells were then washed three times with chilled PBS and harvested by trypsinization with 0.25% trypsin/0.02% EDTA (Invitrogen). The cell suspensions were collected and measured in a y counter (Packard, Meriden, Conn.). The cell uptake was expressed as the percent added dose (% AD) after decay correction. Experiments were performed twice with triplicate wells. For efflux studies, ^68Ga-labeled tracers (about 18 kBq/well) were first incubated with PC-3 cells in 12-well plates for 1 h at 37° C. to allow internalization. Then cells were washed twice with PBS, and incubated with cell culture medium for 15, 30, and 60 min. After washing three times with PBS, cells were harvested by trypsinization with 0.25% trypsin/0.02% EDTA. The cell suspensions were collected and measured in a γ counter. Experiments were performed twice with triplicate wells. Data are expressed as percent added dose after decay correction.

in vivo [2] = settings: mouse, in vivo, iv, total radioactivity
Description: (a) PET scans and image analysis were performed using a micro-PET R4 rodent model scanner (Siemens Medical Solutions) as reported by Li et al., J. Nucl. Med. (2007) 48: 1162-1171 and Wu et al., J Nucl. Med. (2005) 46: 1707-1718, both of which are incorporated herein by reference in their entireties). […] Five-minute static PET images were then acquired at 0.5, 1, and 2 h after injection. The images were reconstructed by a 2-dimensional ordered-subsets expectation maximum (OSEM) algorithm. No attenuation or scatter correction was applied. […] The 5-min static PET scans were then acquired at 1 hr after injection. For each small-animal PET scan, regions of interest (ROIs) were drawn over the tumor, normal tissue, and major organs by using vendor software (ASI Pro 5.2.4.0) on decay-corrected whole-body coronal images. The average radioactivity concentration (accumulation) within a tumor or an organ was obtained from mean pixel values within the multiple ROI volume, which were converted to counts/mL/min using a conversion factor. Assuming a tissue density of 1 g/mL, the ROIs were converted to counts/g/min, and then divided by the administered activity to obtain an imaging ROI-derived percentage injected dose per gram of tissue (% ID/g).
For dynamic PET, 30-min scans (1×30 s, 4×1 min, 1×1.5 min, 4×2 min, 5×3 min; total 15 frames) were started 1 min after injection, and two 5-min static PET images were also acquired at 1 h and 2 h after injection. […] For each small-animal PET scan, regions of interest (ROIs) were drawn over the tumor, normal tissue, and major organs using vendor software ASI Pro 5.2.4.0 on decay-corrected whole-body coronal images. The maximum radioactivity concentrations (accumulation) within a tumor or an organ were obtained from mean pixel values within the multiple ROI volume, and were converted to megabecquerels per milliliter per minute using a conversion factor. These values were then divided by the administered activity to obtain (assuming a tissue density of 1 g/ml) an image ROI-derived percent injected dose per gram (% ID/g).
The images were reconstructed using a 2-dimensional ordered-subsets expectation maximum algorithm without attenuation or scatter correction.
For each small-animal PET scan, regions of interest were drawn over each tumor, over normal tissue, and over major organs using vendor software (ASI Pro, version 5.2.4.0) on decay-corrected whole-body coronal images. The maximum radioactivity concentration (accumulation) within a tumor or an organ was obtained from the mean pixel values within the multiple-region-of-interest volume, which were converted to MBq/mL/min using a conversion factor. Assuming a tissue density of 1 g/mL, the regions of interest were converted to MBq/g/min and then divided by the administered activity to obtain an imaging region-of-interest-derived percentage injected dose (% ID)/g.

in vivo [3] = experiment: in vivo; set-up: species or system mice; settings: female, BALB/c, mouse, iv, 3.7 MBq, total radioactivity
Description: The 4T1 murine breast cancer cell line was purchased from American Type Culture Collection and grown in RMPI 1640 medium (Invitrogen Corp.) supplemented with 10% (v/v) fetal bovine serum (Invitrogen) at 37° C. with 5% CO2. The 4T1 tumor model was generated by subcutaneous injection of 5×10^6 tumor cells into the left front flank of female normal BALB/c mice (Harlan).
Five-minute static PET images were then acquired at 2 h after injection (n=3/group).

PC-3 tumor cells [4] = format: cell-based, human; settings: PC-3 cells, 60 min efflux, FIG. 14D
Description: In the cell efflux experiment, PC-3 cells were seeded into 12-well plates at a density of 5×10^5 cells per well for overnight incubation. Cells were rinsed 3 times with PBS and then the appropriate ^18F-labeled peptide tracer was added. The cells were incubated at 37° C. for 2 hr, washed with PBS, and then reincubated with serum-free medium. The cells were washed at different time points (0, 15, 30, 60, 120, 180 min) with PBS and lysed with NaOH-SDS (0.2 M NaOH, 1% SDS). The cell lysate was collected in measurement tubes for counting. Efflux values at different time points were calculated by subtracting retention from 0-min retention, and normalized by dividing the total counts at 0 min.
as §1

[5] = Small-animal PET of MDA-MB-435 tumor-bearing mice; settings: female, athymic nude, mouse, in vivo, iv, 3.7 MBq, total radioactivity, MDA-MB435 tumor uptake
Description: The MDA-MB435 tumor model was established by orthotopic injections of 5×10^6 cells into the right mammary fat pad of female athymic nude mice. […] The mice were subjected to microPET studies when the tumor volume reached 100-300 mm^3 (2-3 weeks for MDA-MB-435, and 4-5 wk for T47D).
For static PET, 5-min scans were acquired at 30 min, 1 h, and 2 h after injection. For dynamic PET, 30-min scans (1×30 s, 4×1 min, 1×1.5 min, 4×2 min, 5×3 min; total 15 frames) were started 1 min after injection, and two 5-min static PET images were also acquired at 1 h and 2 h after injection. The images were reconstructed using a two-dimensional ordered subsets expectation maximum (OSEM) algorithm and no correction was applied for attenuation or scatter. […] For each small-animal PET scan, regions of interest (ROIs) were drawn over the tumor, normal tissue, and major organs using vendor software ASI Pro 5.2.4.0 on decay-corrected whole-body coronal images. The maximum radioactivity concentrations (accumulation) within a tumor or an organ were obtained from mean pixel values within the multiple ROI volume, and were converted to megabecquerels per milliliter per minute using a conversion factor. These values were then divided by the administered activity to obtain (assuming a tissue density of 1 g/ml) an image ROI-derived percent injected dose per gram (% ID/g).
Quantification of tumor and major organ activity accumulation in the microPET scans was realized by measuring the regions of interest (ROIs) that encompassing the entire organ on the coronal images.

DU-145 tumor = format: in vivo, mice; settings: integrin αvβ3-positive, low GRPR-expressing tumor
Description: The PC-3 and DU-145 human prostate carcinoma cell lines were purchased from American Type Culture Collection. PC-3 cells were grown in F-12K nutrient mixture (Kaighn's modification) (Invitrogen Corp.), and DU-145 cells were grown in minimum essential medium (Eagle) mixture supplemented with 10% (v/v) fetal bovine serum (Invitrogen) at 37° C. with 5% CO2. The PC-3 and DU-145 tumor models were generated by subcutaneous injection of 5×10^6 tumor cells into the front flank of male athymic nude mice (Harlan).
No attenuation or scatter correction was applied.

[6] = male, athymic nude, 5.5 MBq, Blood uptake
[7] = male, athymic nude, 5.5 MBq, Tumor uptake

| Compound | tissue uptake at 0.5 h (in vivo [2]; [7]) [%ID/g] | tissue uptake at 1 h (in vivo [2]; [7]) [%ID/g] | tissue uptake at 4 h (in vivo [2]; [7]) [%ID/g] | tissue uptake at 20 h (in vivo [2]; [7]) [%ID/g] | tissue uptake at 1 h (in vivo [2]; 5.5 MBq, Blood uptake) [%ID/g] | tissue uptake at 4 h (in vivo [2]; 5.5 MBq, Blood uptake) [%ID/g] | tissue uptake at 20 h (in vivo [2]; 5.5 MBq, Blood uptake) [%ID/g] | tissue uptake at 0.5 h (in vivo [2]; 5.5 MBq, Kidney uptake) [%ID/g] | tissue uptake at 1 h (in vivo [2]; 5.5 MBq, Kidney uptake) [%ID/g] | tissue uptake at 4 h (in vivo [2]; 5.5 MBq, Kidney uptake) [%ID/g] | tissue uptake at 20 h (in vivo [2]; 5.5 MBq, Kidney uptake) [%ID/g] | tissue uptake at 0.5 h (in vivo [2]; 5.5 MBq, Liver uptake) [%ID/g] | tissue uptake at 1 h (in vivo [2]; 5.5 MBq, Liver uptake) [%ID/g] | tissue uptake at 4 h (in vivo [2]; 5.5 MBq, Liver uptake) [%ID/g] | tissue uptake at 20 h (in vivo [2]; 5.5 MBq, Liver uptake) [%ID/g] | further results |
| --- | --- | --- | --- | --- | --- | --- | --- | --- | --- | --- | --- | --- | --- | --- | --- | --- |
| CSCC[C@H](NC(=O)[C@H](CC(C)C)NC(=O)[C@H](Cc1c[nH]cn1)NC(=O)CNC(=O)[C@@H](NC(=O)[C@H](C)NC(=O)[C@H](Cc1c[nH]c2ccccc12)NC(=O)[C@H](CCC(N)=O)NC(=O)CCCCCNC(=O)CC[C@H](NC(=O)CN1CCN(CC(=O)O)CCN(CC(=O)O)CCN(CC(=O)O)CC1)C(=O)NCCCC[C@@H]1NC(=O)[C@@H](Cc2ccc(O)cc2)NC(=O)[C@H](CC(=O)O)NC(=O)CNC(=O)[C@H](CCCNC(=N)N)NC1=O)C(C)C)C(N)=O [^64Cu-DOTA-RGD-BBN, metal not drawn] | 3.05 ± 0.56 | 1.87 ± 0.41 | 1.05 ± 0.49 | 0.97 ± 0.24 | 0.69 ± 0.24 | 0.45 ± 0.2 | 0.31 ± 0.13 | 5.99 ± 1.61 | 3.4 ± 1.25 | 2.51 ± 0.47 | 1.64 ± 0.34 | 3.4 ± 1.42 | 3.05 ± 1.07 | 2.33 ± 0.88 | 1.74 ± 0.9 | cell uptake value (PC-3 tumor cells [1]; 120 min): 3.70 % added dose; tissue uptake at 0.5 h (in vivo [2]; [6]): 1.15 ± 0.49 %ID/g |
| CSCC[C@H](NC(=O)[C@H](CC(C)C)NC(=O)[C@H](Cc1c[nH]cn1)NC(=O)CNC(=O)[C@@H](NC(=O)[C@H](C)NC(=O)[C@H](Cc1c[nH]c2ccccc12)NC(=O)[C@H](CCC(N)=O)NC(=O)CCCCCNC(=S)Nc1ccc(C[C@H]2CN(CC(=O)O)CCN(CC(=O)O)CCN2CC(=O)O)cc1)C(C)C)C(N)=O [^64Cu-NOTA-BBN, metal not drawn, reference compound] | 2.28 ± 0.35 | 1.25 ± 1.03 | 0.56 ± 0.4 | 0.44 ± 0.39 | 0.23 ± 0.11 | 0.19 ± 0.1 | 0.15 ± 0.05 | 3.55 ± 1.17 | 1.5 ± 0.39 | 0.76 ± 0.45 | 0.5 ± 0.44 | 10.4 ± 2.27 | 8.85 ± 1.61 | 6.35 ± 0.57 | 4.2 ± 0.53 | tissue uptake at 0.5 h (in vivo [2]; [6]): < 1 %ID/g; tissue uptake at 24 h (in vivo [2]; [7]): 0.44 ± 0.39 %ID/g; tissue uptake at 2 h (in vivo [3]): 0.33 ± 0.18 %ID/g |
| N=C(N)NCCC[C@@H]1NC(=O)[C@H](CCCCNC(=S)Nc2ccc(C[C@H]3CN(CC(=O)O)CCN(CC(=O)O)CCN3CC(=O)O)cc2)NC(=O)[C@@H](Cc2ccc(O)cc2)NC(=O)[C@H](CC(=O)O)NC(=O)CNC1=O [^64Cu-NOTA-RGD, metal not drawn, reference compound] | 1.01 ± 0.29 | 0.83 ± 0.24 | 0.66 ± 0.21 | 0.55 ± 0.32 | 0.43 ± 0.32 | 0.3 ± 0.11 | 0.34 ± 0.18 | 3.37 ± 0.89 | 2.13 ± 0.85 | 1.43 ± 0.68 | 0.98 ± 0.48 | 2.86 ± 1.06 | 2.68 ± 1.15 | 2.15 ± 0.79 | 1.67 ± 0.69 | tissue uptake at 2 h (in vivo [3]): 0.65 ± 0.07 %ID/g |
| CSCC[C@H](NC(=O)[C@H](CC(C)C)NC(=O)[C@H](Cc1c[nH]cn1)NC(=O)CNC(=O)[C@@H](NC(=O)[C@H](C)NC(=O)[C@H](Cc1c[nH]c2ccccc12)NC(=O)[C@H](CCC(N)=O)NC(=O)CCCCCNC(=S)Nc1ccc(C[C@H]2CN(CC(=O)O)CCN(CC(=O)O)CCN2CC(=O)O)cc1)C(C)C)C(N)=O [^68Ga-NOTA-BBN, metal not drawn, reference compound] |  |  |  |  |  |  |  |  |  |  |  |  |  |  |  | cell-associated tracer (cell retention) (PC-3 tumor cells [4]): 6.70±1.00 % AD; tissue uptake at 0.5 h (in vivo [2]; male, athymic nude, 3.7 MBq, liver uptake (highest)): 2 %ID/g; tissue uptake at 1 h [5]: 0.38 ± 0.5 %ID/g |
| N=C(N)NCCC[C@@H]1NC(=O)[C@H](CCCCNC(=S)Nc2ccc(C[C@H]3CN(CC(=O)O)CCN(CC(=O)O)CCN3CC(=O)O)cc2)NC(=O)[C@@H](Cc2ccc(O)cc2)NC(=O)[C@H](CC(=O)O)NC(=O)CNC1=O [^68Ga-NOTA-RGD, metal not drawn, reference compound] |  |  |  |  |  |  |  |  |  |  |  |  |  |  |  | tissue uptake at 1 h [5]: 1.63 ± 0.59 %ID/g |
| ^18F-FB-BBN-RGD: ^18F-fluorobenzoate-labeled heterodimer of BBN(7-14) and c(RGDyK) joined through a glutamate linker |  |  |  |  |  |  |  |  |  |  |  |  |  |  |  | detection of the DU-145 tumor by PET (DU-145 tumor): able to visualize this tumor model |
| ^18F-FB-RGD: ^18F-fluorobenzoate-labeled monomeric RGD peptide c(RGDyK) [reference compound] |  |  |  |  |  |  |  |  |  |  |  |  |  |  |  | cell uptake (PC-3 tumor cells [1]; 37° C., normalized to added radioactivity): < 0.5%; detection of the DU-145 tumor by PET (DU-145 tumor): able to visualize this tumor model |
